# Numbered stars: 1 amine (or outer) side, 2 acyl side, 3 side chain; on linkers, the order of the positions; unused ones are H or OH. Bridge positions count the residues as written; N and C are the ends. Square brackets hold non-standard residues; d marks the D form. Side chains are listed from the residue outwards. Ends that are not written are not given here. * marks the point of attachment. C18 diacid = O=C(O)CCCCCCCCCCCCCCCCC(=O)*; γGlu = O=C(O)[C@H](CCC(=O)[*:2])N[*:1]; αMeF = C[C@](N)(Cc1ccccc1)C(=O)O
# What was measured:
# Type in all cases: in vivo, rat
# [1] = tested on: diet-induced obese (DIO) Sprague-Dawley rats; test: Example 2: 28-day combination study in DIO rats (body weight, EchoMRI body composition); conditions: LAA 10 nmol/kg, GLP-1/GCG 5.4 nmol/kg or both
# Procedure: Study Design: Male diet-induced obese (DIO) Sprague-Dawley rats were fed a high fat diet (45% fat, D12451; Research Diets) for 34 weeks prior to study start. […] Research Diets). […] Average body weight for all DIO rats at start of study was 722.4+10.1 grams. Body composition was measured by EchoMRI on day-7 and day 26. In this experiment, the LAA was that of SEQ ID NO: 11, and the GLP-1/GCG dual-agonist was cotadutide. Data reported as mean±standard error of the mean (SEM); data analysis performed using GraphPad Prism-statistical analysis performed using One-way ANOVA with Tukey ad hoc analysis.
# [2] = tested on: DIO male pair-housed rats; test: Example 3 additional study: 28-day body weight, food intake and organ weights in DIO rats; conditions: 28 days SC daily
# Procedure: (§1) Study design: DIO male pair-housed rats fed a 32.5% high-fat diet (D12266B) for 7 weeks reached a mean body weight (BW) of ˜595 g. Rats were dosed SC daily for 28 days with vehicle (Vh), GLP-1/GCG dual agonist (1.5 or 5 nmol/kg), LAA (2.5 or 7.5 nmol/kg), or combination (1.5+2.5 nmol/kg, 1.5+7.5 nmol/kg, 5+2.5 nmol/kg, or 5+7.5 nmol/kg, respectively). Food intake (FI) and BW were measured daily. In chow fed lean rats, gastric emptying (GE) was measured via X-ray fluoroscopic quantification following SC injections of Vh, GLP-1/GCG dual agonist at 1, 3, or 10 nmol/kg or LAA at 1, 3, or 10 nmol/kg. In a subsequent acute GE study, lean rats received a single dose of Vh, GLP-1/GCG dual agonist (2 nmol/kg), LAA (2 nmol/kg) or GLP-1/GCG dual agonist+LAA combination (2+2 nmol/kg). In this experiment, the LAA was that of SEQ ID NO: 11, and the GLP-1/GCG dual-agonist was cotadutide.
# chow fed lean rats = test: Example 3: acute gastric emptying by X-ray fluoroscopic quantification; conditions: acute SC
# Procedure: as §1
# Wistar Han rats = test: Example 4: 3-month subcutaneous study, body weight; conditions: for Body Weight Comparison, Day 92 vs. Control Group 1 Day 92 / Body Weight Gain (Day 92 vs Day −1) / Mean Body Weight at Day 92: dose levels 2000/0, Group 4
# Procedure: Study Design: Male (9-11 weeks of age) and female (10-11 weeks of age) Wistar Han rats were SC administered with Vehicle/Vehicle (group 1—for LAA of SEQ ID NO: 11 and GLP-1/GCG of SEQ ID NO: 35), LAA of SEQ ID NO: 11 and GLP-1/GCG of SEQ ID NO: 35 (group 2—500 and 5 μg/kg respectively), LAA of SEQ ID NO: 11 and GLP-1/GCG of SEQ ID NO: 35 (group 3—2000 and 5 μg/kg respectively), SEQ ID NO: 11 and Vehicle for SEQ ID NO: 35 (group 4—2000 μg/kg and 0 μg/kg respectively), or Vehicle for SEQ ID NO: 11 and SEQ ID NO: 35 (group 5—0 and 5 μg/kg respectively) daily for 91 days. Dosing for LAA of SEQ ID NO: 11 was dose escalated with group 2 receiving 250 μg/kg from day 1-5 and 500 μg/kg for duration of study, and groups 3 and 4 receiving 250 μg/kg SEQ ID NO: 11 from day 1-5, 500 μg/kg SEQ ID NO: 11 from days 7-13 and 2000 μg/kg for duration of study. There was a n=10/group per gender.
# DIO Sprague-Dawley rats = test: Example 6: treatment switch / add-on study after GLP-1RA lead-in; conditions: for body weight change, % of day 0 body weight: day 30
# Procedure: Study Design: Male DIO Sprague-Dawley rats were fed a high-fat diet (32.5% kcal fat, D12266B; Research Diets) for approximately 8 weeks prior to study start. Rats were dosed SC for 15 days with Vehicle (n=16) or GLP-1RA (n=32) (5 nmol/kg) once-daily (QD). Beginning on day 16 rats initially treated with Vehicle either continued with Vehicle (n=8) or were switched to LAA (7.5 nmol/kg, n=8) administration. Rats initially receiving GLP-1RA treatment either continued with GLP-1RA, were switched to LAA (7.5 nmol/kg), were switched to Vehicle, or continued with GLP-1RA with addition of LAA treatment (7.5 nmol/kg) for duration of study (day 30), with n=8/group. Body weight was measured daily through-out study. Data reported as mean±standard error of the mean (SEM); data analysis performed using GraphPad Prism In this experiment, the LAA was that of SEQ ID NO: 11, and the GLP-1R agonist was semaglutide.
# DIO rats = test: Example 7: 28-day LAA and GLP/GIP dual agonist study
# Procedure: Study Design: Male rats were fed a high-fat diet (45% kcal fat-D12451; Research Diets) or chow control matched diet (10% kcal fat-D12450K; […] Control rats were dosed SC with Vehicle. Body weight was monitored daily through-out study and body composition measured by EchoMRI at baseline (week-1) and end of study (week 4). […]
# [3] = tested on: High-fat diet (DIO) fed rats; test: Example 9: 4-week LAA or DACRA monotherapy in DIO rats; conditions: for BW reduction compared to vehicle / reduction of cumulative food intake: 4 weeks
# Excerpt: Study 1 Design: High-fat diet (DIO) fed rats were used to profile LAA or DACRA monotherapy to evaluate food intake, body weight-lowering and body composition effects in a 4-week study. In this experiment, the LAA was that of SEQ ID NO: 11 and the DACRA was cagrilintide.
# [4] = end of study, after initial GLP-1RA: GLP-1RA continued, switched to LAA, or Combination
substance,measurement,setting,value
K(γE-γE-C18diacid)[CNTATC]ATQRLANFLRHSSNN(αMePhe)GPILPPTEVGSNTY-amide (K([γGlu-γGlu-C18 diacid])CNTATCATQRLANFLRHSSNN[αMeF]GPILPPTEVGSNTY-NH2; disulfide 2-7) [LAA],body weight loss vs Vehicle,"[1]; SC QD, FIG. 1A",lost significantly more body weight than Vehicle treated rats
same,fat mass change (EchoMRI),[1]; day 26,lost a significant amount of fat mass compared to Vehicle treatment
same,lean mass change (EchoMRI),[1]; day 26,little effect on lean mass
same,Vh corrected BW change (BW gain),[2]; LAA 2.5 nmol/kg,−9.4%
same,Vh corrected BW change (BW gain),[2]; LAA 7.5 nmol/kg,−13.7%
same,Cumulative FI normalized to Vh,[2]; monotherapy and combination groups,decreased in a dose-dependent manner
same,GE AUC as % of Vehicle,chow fed lean rats; 1 nmol/kg,101%
same,GE AUC as % of Vehicle,chow fed lean rats; 3 nmol/kg,34%
same,GE AUC as % of Vehicle,chow fed lean rats; 10 nmol/kg,8%
same,Body weight at study day 92 vs Vehicle,"Wistar Han rats; both male and female, groups 2-5",significantly lower
same,"Body Weight Comparison, Day 92 vs. Control Group 1 Day 92",Wistar Han rats; female,89%
same,Body Weight Gain (Day 92 vs Day −1),Wistar Han rats; female,110%
same,Mean Body Weight at Day 92,Wistar Han rats; female,222.1 grams
same,"Body Weight Comparison, Day 92 vs. Control Group 1 Day 92",Wistar Han rats; male,79%
same,Body Weight Gain (Day 92 vs Day −1),Wistar Han rats; male,119%
same,Mean Body Weight at Day 92,Wistar Han rats; male,319.2 grams
same,total lean mass at the end of the study,DIO Sprague-Dawley rats; FIG. 5E,trend towards the animals switching to LAA therapy preserving the most lean mass
same,fasting leptin levels at the end of the study,"DIO Sprague-Dawley rats; compared to discontinuing therapy at day 15, FIG. 5F",significantly reduced
same,"body weight change, % of day 0 body weight",DIO Sprague-Dawley rats; switched from GLP-1RA to LAA 7.5 nmol/kg on day 16,−3.4%
same,"body weight change, % of day 0 body weight",DIO Sprague-Dawley rats; switched from Vehicle to LAA 7.5 nmol/kg on day 16,+1.1%
same,Fat,DIO Sprague-Dawley rats; [4],103.70 g
same,"Fat, Δ from Control",DIO Sprague-Dawley rats; [4],41.95 g
same,change in body weight normalized to Vehicle,"DIO Sprague-Dawley rats; end of study, switched from GLP-1RA to LAA",−12%
same,change in body weight normalized to Vehicle,"DIO Sprague-Dawley rats; end of study, switched from VH to LAA",−7.1%
same,"Fat, Δ from Vehicle","DIO Sprague-Dawley rats; end of study, vs group switched from GLP-1RA to Vehicle",27.21 g
same,body weight change,"DIO rats; day 28, mono-treatment 10 nmol/kg SC QD",−5.6%
same,change in fat mass (g),"DIO rats; end of study (week 4), EchoMRI, FIG. 6C",significant decrease in fat mass
same,change in lean mass (g),"DIO rats; end of study, EchoMRI, mono-treatment, FIG. 6D",no effect on lean mass
same,BW reduction compared to vehicle,[3]; 2.5 nmol/kg,−5.2±0.6%
same,reduction of cumulative food intake,[3]; 2.5 nmol/kg,−14.3±1.2 % of vehicle
same,BW reduction compared to vehicle,[3]; 10 nmol/kg,−9.7±0.7%
same,reduction of cumulative food intake,[3]; 10 nmol/kg,−20.9±0.7 % of vehicle
same,fat-mass loss,"[3]; end of study, 10 nmol/kg",-28.0 ± 2.3 g
same,proportion of body weight loss that was fat-mass specific,"[3]; end of study, 10 nmol/kg, FIG. 8C",100%
same,lean mass,"[3]; end of study, FIG. 8B",Lean mass was preserved in the LAA groups

# — patent US20260091086A1, “POLYPEPTIDE COMBINATIONS AND USES THEREOF” (MEDIMMUNE LIMITED, priority 2024, published 2026)
